Legend:
Toxicity in mice = type: in vivo, Balb/c mice
Experimental: It was assumed that the maximum human dose of ERC 9 would be 2 mg per 50 kg (or […]) body weight. Mouse studies were done at a rate of 500 times the maximum human dose on a weight basis. Five Balb/c male and five Balb/c female mice were injected via the tail vein with 0,005 ml per gram body weight of a solution of ERC 9 in water (4 mg per ml) on each of three occasions one day apart. The animals were maintained for 30 days.

[1] = Pancreas uptake and pancreas to liver ratio in Balb/c mice (radioiodine biodistribution); type: in vivo; conditions: for P/L (percent dose in pancreas / percent dose in liver) / Pancreas uptake (mean percent administered dose per organ): I-125 label, 20 μg i.v., male Balb/c mice, mean ± standard deviation; for pancreas/liver ratios compared with HIPDM: all time periods from 30 minutes to 24 hours
Experimental: The pancreatic uptake and pancreas/liver ratio of I-125 ERC 9 (prepared as in Examples 1 and 2) and I-125-HIPDM were compared in mice. Male Balb/c mice were injected via the tail vein with I-125 ERC 9 or I-125 HIPDM (20 μg, 0.01 MBq, in 0.1 ml). At specific time periods from 5 minutes to 24 hours after administration, six mice from each group were killed by CO2 asphyxiation. Blood samples were taken and various organs (including the pancreas and liver) were removed. The radioiodine uptake in various organs was determined by counting in a gamma spectrometric detector. The amount of radioactivity in each organ or tissue was compared to that in a standard of the injected dose. The percent uptake was calculated for each organ of each animal. The pancreas to liver ratio was calculated by dividing the percent uptake in the pancreas by the percent uptake in the liver. The mean uptake in the organs and the mean pancreas/liver ratio was calculated for the animals at each time period.
The pancreatic uptake and pancreas/liver ratios of I-125 ERC 46 and I-125 HIPDM were compared in Balb/c mice as described in Example 6.
The pancreas uptake and pancreas/liver ratios of I-125 ERC 90 and I-125 HIPDM were compared in Balb/c mice as described in Example 6.
The pancreas uptakes and pancreas/liver ratios of I-125 ERC 94 and I-125 HIPDM were compared in Balb/c mice as described in Example 6.

[2] = Human radiation dosimetry of I-123 ERC 9 estimated from tissue distribution in mice (MIRD); design: species or system human (from Balb/c mouse data); conditions: MIRD calculation from mouse tissue distribution
Experimental: The human radiation dose from I-123 ERC 9 was estimated from tissue distribution data in mice.
Male Balb/c mice were injected via the tail vein with I-125 ERC 9 (20 μg, 0.01 MBq, in 0.1 ml). At specific time periods from 5 minutes to 24 hours after administration, six mice were killed by CO2 asphyxiation. Blood samples were taken and various organs were removed. The radioiodine uptake in various organs and tissues was determined by counting in a gamma spectrometric detector. The amount of radioactivity in each organ or tissue was compared to that in a standard of the injected dose. The percent uptake was calculated for each organ of each animal. The mean percent uptake in the organs was calculated for the animals at each time period.
The mean uptakes for each of the organs and tissues were plotted versus time on semilogarithmic paper. From these plots, the uptake and clearance half times for each of the organs and tissues were calculated.
Using these values and the MIRD (Society of Nuclear Medicine) method of dosimetry calculations, the human radiation doses from I-123 were calculated.

[3] = Pancreatic imaging in human volunteers (planar and SPECT gamma camera); type: in vivo
Experimental: Imaging studies have been done in two human volunteers using I-123 ERC 9.
I-123 ERC 9 (185 MBq, 2 mg), prepared as in Example 2, was injected intravenously into the two volunteers. Using a gamma camera with SPECT (Single Photon Emission Computed Tomography) capability, planar images were obtained at 30 minutes, 1.5 hours, 3 hours and 24 hours after injection. SPECT images were obtained at 3-4 hours after injection.

[4] = cited from earlier work
[5] = rats and mice; Yamamoto et al.; cited from earlier work
[6] = cited from earlier work; remark: listed apart in the source
[7] = 500 times maximum human dose, i.v., three occasions one day apart, maintained 30 days
[8] = 30 minutes after administration
[9] = I-123 ERC 9, 185 MBq, 2 mg i.v.
[10] = planar and SPECT images, 3-4 hours
[11] = 4 and 24 hours after administration
[12] = human clinical studies, Yamamoto et al.

| SMILES | P/L (percent dose in pancreas / percent dose in liver) ([1]; 5 minutes after administration) | P/L (percent dose in pancreas / percent dose in liver) [1, 8] | P/L (percent dose in pancreas / percent dose in liver) ([1]; 1 hour after administration) | P/L (percent dose in pancreas / percent dose in liver) ([1]; 4 hours after administration) | P/L (percent dose in pancreas / percent dose in liver) ([1]; 24 hours after administration) | pancreas uptake compared with HIPDM [1, 11] | pancreas/liver ratios compared with HIPDM [1] | pancreas uptake compared with HIPDM ([1]; early time periods) | Pancreas uptake (mean percent administered dose per organ) ([1]; 5 minutes after administration) | Pancreas uptake (mean percent administered dose per organ) [1, 8] | Pancreas uptake (mean percent administered dose per organ) ([1]; 1 hour after administration) | Pancreas uptake (mean percent administered dose per organ) ([1]; 4 hours after administration) | Pancreas uptake (mean percent administered dose per organ) ([1]; 24 hours after administration) | other results |
| --- | --- | --- | --- | --- | --- | --- | --- | --- | --- | --- | --- | --- | --- | --- |
| Cc1cc([125I])cc(CN(C)CCCN2CCOCC2)c1O [ERC 9, N[3(4-morpholino)propyl]-N-methyl-2-hydroxy-3-methyl-5-iodobenzylamine] | 0.40 ± 0.10 | 0.61 ± 0.05 | 0.66 ± 0.14 | 2.02 ± 0.67 | 2.54 ± 0.34 |  |  |  | 2.08 ± 0.90 percent administered dose per organ | 4.52 ± 0.75 percent administered dose per organ | 4.79 ± 0.70 percent administered dose per organ | 6.60 ± 1.84 percent administered dose per organ | 3.30 ± 0.53 percent administered dose per organ | histological examination of various organs and tissues (Toxicity in mice; [7]): no changes that could be attributed to chemical toxicity; immediate or delayed toxicity (Toxicity in mice; [7]): no indication of immediate or delayed toxicity; chemical toxicity (Toxicity in mice; animal studies): low chemical toxicity; mean pancreas/liver ratio compared with HIPDM ([1]; at all time intervals): greater than that for HIPDM; human radiation dose to the pancreas [2]: approximately 15.5 mGy per 111 MBq; visualization of the pancreas ([3]; 24 hours after injection): less than optimal although still present; quality of pancreatic images ([3]; FIGS. 2 and 3, human volunteers): High quality pancreatic images; time at which uptake of the radiotracer was seen [3, 9]: ≤ 30 min; time of optimum pancreatic uptake and pancreas/liver ratio [3, 9]: 3 to 4 h; accumulation of radiolabel in pancreas [3, 10]: high degree of accumulation of radiolabel in normal human pancreas; discrimination of pancreas from other abdominal organs [3, 10]: good discrimination of pancreas from other abdominal organs |
| Cc1cc([125I])cc(CN(C)CCCN2CCCCC2)c1O [ERC 90, N[3(1-piperidino)propyl]-N-methyl-2-hydroxy-3-methyl-5-iodobenzylamine] | 0.22 ± 0.04 | 0.50 ± 0.11 | 0.80 ± 0.18 | 2.12 ± 0.35 | 6.70 ± 1.42 | higher pancreas uptakes than did HIPDM | significantly higher | lower | 1.32 ± 0.34 percent administered dose per | 2.73 ± 0.59 percent administered dose per | 3.62 ± 0.84 percent administered dose per | 5.35 ± 0.88 percent administered dose per | 5.59 ± 0.60 percent administered dose per |  |
| C[75Se]CCC(N)C(=O)O (stereo not shown) [Se-75 selenomethionine] |  |  |  |  |  |  |  |  |  |  |  |  |  | pancreatic visualisation ([6]; in vivo): inconsistency of pancreatic visualisation; patient radiation dose ([6]; selenium-75): high patient radiation dose |

More lines, main results first:

| P/L (percent dose in pancreas / percent dose in liver) ([1]; 5 minutes after administration) | P/L (percent dose in pancreas / percent dose in liver) [1, 8] | P/L (percent dose in pancreas / percent dose in liver) ([1]; 1 hour after administration) | P/L (percent dose in pancreas / percent dose in liver) ([1]; 4 hours after administration) | P/L (percent dose in pancreas / percent dose in liver) ([1]; 24 hours after administration) | pancreas uptake compared with HIPDM [1, 11] | pancreas/liver ratios compared with HIPDM [1] | pancreas uptake compared with HIPDM ([1]; early time periods) | SMILES | Pancreas uptake (mean percent administered dose per organ) ([1]; 5 minutes after administration) | Pancreas uptake (mean percent administered dose per organ) [1, 8] | Pancreas uptake (mean percent administered dose per organ) ([1]; 1 hour after administration) | Pancreas uptake (mean percent administered dose per organ) ([1]; 4 hours after administration) | Pancreas uptake (mean percent administered dose per organ) ([1]; 24 hours after administration) | other results |
| --- | --- | --- | --- | --- | --- | --- | --- | --- | --- | --- | --- | --- | --- | --- |
| 0.22 ± 0.04 | 0.54 ± 0.09 | 0.78 ± 0.20 | 2.11 ± 0.32 | 7.47 ± 1.40 | higher pancreas uptake than did HIPDM | significantly higher | lower | Cc1cc([125I])cc(CN(C)CCCN2CCCC2)c1O [ERC 46, N[3(1-Pyrrolidino)propyl]-N-methyl-2-hydroxy-3-methyl-5-iodobenzylamine] | 1.34 ± 0.32 percent administered dose per | 4.14 ± 0.68 percent administered dose per | 3.74 ± 0.69 percent administered dose per | 5.95 ± 0.78 percent administered dose per | 4.91 ± 0.43 percent administered dose per |  |
| 0.22 ± 0.04 | 0.61 ± 0.06 | 0.67 ± 0.19 | 1.61 ± 0.26 | 4.03 ± 1.76 |  | significantly higher |  | CCN(CC)CCCN(C)Cc1cc([125I])cc(C)c1O [ERC 94, N[3(diethylamino)propyl]-N-methyl-2-hydroxy-3-methyl-5-iodobenzylamine] | 1.56 ± 0.26 percent administered dose per | 2.86 ± 0.48 percent administered dose per | 3.45 ± 0.90 percent administered dose per | 4.65 ± 0.67 percent administered dose per | 3.76 ± 1.62 percent administered dose per | pancreas uptakes compared with HIPDM ([1]; all time periods studied except 24 hours): lower than those of HIPDM |
| 0.21 ± 0.03 | 0.32 ± 0.04 | 0.46 ± 0.06 | 0.95 ± 0.14 | 1.18 ± 0.47 |  |  |  | Cc1cc([125I])cc(CN(C)CCCN(C)C)c1O [HIPDM, N,N,N'-trimethyl-N'[2-hydroxy-3-methyl-5-iodobenzyl]-1,3-propanediamine, reference compound] |  |  |  |  |  | differentiation between pancreatic and liver retention [4, 12]: difficult; pancreas/liver ratios [4, 12]: not optimal for clinical use; suitability for clinical use ([4]; human): unsatisfactory for clinical use; localisation in the pancreas [5]: some localisation of HIPDM in the pancreas |

— patent US5349063A, “Pancreatic imaging agents” (priority 1993, dated 1994)
